Measurements: ChEMBL document CHEMBL2151008, “Enhanced ROS production and cell death through combined photo- and sono-activation of conventional photosensitising drugs” (2011)
Calls of active or inactive are those of the source. No cut-off for these calls is given here.

Tests used:
[1] = system: CHO; test: Cytotoxicity against CHO cells assessed as cell death at 100 uM after 3 hrs followed by photo/sono-irradiation for 30 secs measured 24 hrs post irradiation by MTT assay relative to photo-irradiated cells; assay type: functional, Cricetulus griseus
[2] = system: CHO; test: Cytotoxicity against CHO cells assessed as cell death at 100 uM after 3 hrs followed by photo/sono-irradiation for 30 secs measured 24 hrs post irradiation by MTT assay relative to sono-irradiated cells; assay type: functional, Cricetulus griseus
[3] = system: CHO; test: Cytotoxicity against CHO cells assessed as cell viability at 100 uM after 3 hrs by MTT assay; assay type: functional; settings: Cricetulus griseus, read-out: Activity
[4] = system: CHO; test: Cytotoxicity against CHO cells after 3 hrs followed by photo/sono-irradiation for 30 secs measured 24 hrs post irradiation by MTT assay; assay type: functional, Cricetulus griseus
[5] = system: CHO; test: Cytotoxicity against CHO cells after 3 hrs followed by photo-irradiation for 30 secs measured 24 hrs post irradiation by MTT assay; assay type: functional, Cricetulus griseus
[6] = system: CHO; test: Cytotoxicity against CHO cells after 3 hrs followed by sono-irradiation for 30 secs measured 24 hrs post irradiation by MTT assay; assay type: functional, Cricetulus griseus
[7] = system: CHO; test: Cytotoxicity against CHO cells after 3 hrs by MTT assay; assay type: functional, Cricetulus griseus
[8] = system: CHO; test: Cytotoxicity against CHO cells assessed as cell death at 100 uM after 3 hrs followed by photo-irradiation for 30 secs measured 24 hrs post irradiation by MTT assay; assay type: functional, Cricetulus griseus
[9] = system: CHO; test: Cytotoxicity against CHO cells assessed as cell death at 100 uM after 3 hrs followed by sono-irradiation for 30 secs measured 24 hrs post irradiation by MTT assay; assay type: functional, Cricetulus griseus
[10] = system: CHO; test: Cytotoxicity against CHO cells assessed as cell death at 100 uM after 3 hrs followed by photo/sono-irradiation for 30 secs measured 24 hrs post irradiation by MTT assay; assay type: functional, Cricetulus griseus
[11] = ROS-generating activity of the photo-irradiated compound assessed as singlet oxygen generation measuring reduction in absorbance at 410 nm at 5 uM by DPBF oxidation method; set-up: scale not given: the % may be the effect or the level left
[12] = ROS-generating activity of the sono-irradiated compound assessed as singlet oxygen generation measuring reduction in absorbance at 410 nm at 5 uM by DPBF oxidation method; set-up: scale not given: the % may be the effect or the level left
[13] = ROS-generating activity of the photo/sono-irradiated compound assessed as singlet oxygen generation measuring reduction in absorbance at 410 nm at 5 uM by DPBF oxidation method; set-up: scale not given: the % may be the effect or the level left
[14] = system: CHO; test: Cytotoxicity against CHO cells assessed as cell death at 0.1 to 100 uM after 3 hrs followed by photo-irradiation for 30 secs measured 24 hrs post irradiation by MTT assay; assay type: functional, cell-based; settings: Cricetulus griseus
[15] = system: CHO; test: Cytotoxicity against CHO cells assessed as cell death at 0.1 to 100 uM after 3 hrs followed by sono-irradiation for 30 secs measured 24 hrs post irradiation by MTT assay; assay type: functional, cell-based; settings: Cricetulus griseus
[16] = system: CHO; test: Cytotoxicity against CHO cells assessed as cell death at 0.1 to 100 uM after 3 hrs followed by photo/sono-irradiation for 30 secs measured 24 hrs post irradiation by MTT assay; assay type: functional, cell-based; settings: Cricetulus griseus

Row | SMILES | fold change (FC) [1] | Activity [2] | viability at 100 µM [3] | LD50 [4] | LD50 [5] | LD50 [6] | LD50 [7] | Activity [8] | Activity [9] | Activity [10] | Activity [11] | Activity [12] | Activity [13] | Activity [14] | Activity [15] | Activity [16]
1 | CN(C)c1ccc2nc3ccc(N(C)C)cc3[s+]c2c1.[Cl-] [METHYLENE BLUE ANHYDROUS] | 2 | 43% | 80% | – | – | – | – | – | – | – | – | – | – | – | – | –
2 | O=C([O-])c1c(Cl)c(Cl)c(Cl)c(Cl)c1-c1c2cc(I)c(=O)c(I)c-2oc2c(I)c([O-])c(I)cc12.[Na+].[Na+] [ROSE BENGAL SODIUM] | – | – | 65% | 2 µmol | 3.3 µmol | 38.5 µmol | 138.4 µmol | 95% | 95% | 95% | 44.7% | 58.4% | 74.9% | – | – | –
3 | CN(C)c1ccc2nc3ccc(=[N+](C)C)cc-3sc2c1 | – | – | – | – | – | – | – | – | – | – | 38.8% | 40.1% | 71.8% | Active | Active | Active
